{"source": "patent US20250170127A1", "about": "“RE-SENSITIZING MULTIDRUG-RESISTANT (MDR) GRAM-NEGATIVE BACTERIA TO COLISTIN USING IONOPHORES” (The Regents of the University of Colorado, a body corporate, priority 2022, published 2025)", "key": {"E. coli AR-0493 [1]": {"tested_on": "E. coli AR-0493", "assay": "MIC, CLSI broth microdilution, substance alone", "format": "cell-based", "settings": "Escherichia coli, AR0493, read-out: MIC", "description": "A MDR E. coli strain AR-0493 (a.k.a., ATCC BAA-3170) was obtained from the CDC and FDA Antibiotic Resistance Bank and used for the initial screen. […] Considering the difficulties on the discovery of novel antimicrobial reagents against Gram-negative bacteria, we chose to screen the fragment-based library of 3,200 compounds from TimTec (Tampa, FL). […] The screen used a modified broth microdilution assay.\nThese 10 compounds were tested for their MICs and minimum re-sensitizing concentrations (MRCs) in the presence colistin at 2 μg/mL in E. coli AR-0493. […] To evaluate their toxicity in mammalian cells, the present inventors treated human epithelial adenocarcinoma HeLa cells with each compound at a wide range of concentrations. […]\n(§1) General Methods. MDR strains E. coli AR-0493, AR-0346, and AR-0538, Salmonella Enteritidis AR-0496, Salmonella Typhimurium AR-0635, K. pneumoniae AR-0497, A. baumannii AR-0300 and AR-0310 were all obtained from the CDC & FDA Antibiotic Resistance Isolate Bank. E. coli K-12 was a gift from the Copley lab (Department of MCD Biology, University of Colorado Boulder). HeLa cells were purchased from the ATCC. All bacterial strains were grown on trypticase soy agar supplemented with 5% sheep blood (BAP). Bacteria were then cultured in Luria-Bertani (LB) medium at 35° C. until they achieve the log phase before screening or antimicrobial testing using CAMHB media. MIC, MRC, and checkerboard analyses and mammalian growth inhibition analyses in Hela cells were performed as described previously. More details are given in Supporting information."}, "E. coli AR-0493 [2]": {"tested_on": "E. coli AR-0493", "assay": "Minimum re-sensitizing concentration (MRC) in the presence of colistin", "format": "cell-based", "settings": "in AR-0493", "description": "These 10 compounds were tested for their MICs and minimum re-sensitizing concentrations (MRCs) in the presence colistin at 2 μg/mL in E. coli AR-0493.\nThe present inventors further conducted MRC screens of selected compounds from groups 2-5 in AR-0493. Compound were tested against AR-0493 with compound X+2 μg/mL Colistin.\nAll compounds were tested for their respective minimum resensitizing concentrations (MRCs) for colistin against E. coli. AR0493, a MDR strain from CDC and FDA Antibiotic Resistance Bank. […] For the symmetrical bisanilino series, 7a-p, electron-donating alkyl and alkoxy groups (entries 7a-g, Table 5) at various positions of the phenyl rings were investigated. […] Three asymmetric bisanilino analogs (7q-s, Table 5) were synthesized based on the SARs of the monoanilino analogs 8a-p (vide infra).\nas §1"}, "in vitro": {"assay": "in vitro", "format": "cell-based, human", "settings": "human", "description": "(§2) These 10 compounds were tested for their MICs and minimum re-sensitizing concentrations (MRCs) in the presence colistin at 2 μg/mL in E. coli AR-0493. […] To evaluate their toxicity in mammalian cells, the present inventors treated human epithelial adenocarcinoma HeLa cells with each compound at a wide range of concentrations.\n(§3) To evaluate the mammalian toxicity of these analogs, Applicants tested them in cell viability assay using human cervical adenocarcinoma HeLa cells. Their respective half maximal growth inhibition concentration (GI50) was calculated using KaleidaGraph. The selectivity index (SI) for each compound was also calculated as the ratio of their GI50 and MRC. […] Therefore, Applicants selected two bisanilino analogs, 7l and 7m, that bear chlorines at the meta- and para-positions, respectively, of the phenyl groups for further characterization studies. […]. […] Their mammalian toxicities were also evaluated, and SIs calculated. […] Applicants we next explored the scope of analogs 71 and 7m their colistin-potentiating activity in 8 different MDR Gram negative bacteria with diverse genetic backgrounds and resistance mechanisms (Table 7). All strains were obtained from CDC and FDA Antibiotic Resistance Bank. For example, E. coli AR-0493 and K. pneumoniae AR-0497 carry the plasmid that contains the most prevalent mcr-1 gene. E. coli AR-0538, Salmonella Typhimurium AR-0539 and AR-0635 contain the mcr-2, 3, and 4 genes, respectively. These genes encode the phosphoethanolamine transferase, which was originated form the chromosome of A. baumannii, such as AR-0310. […]. A. baumannii AR-0310 appears more sensitive to these two compounds and the MICs of colistin was reduced to 0.25 μg/mL.\nas §1"}, "HeLa cells": {"tested_on": "HeLa cells", "assay": "in vitro", "format": "cell-based, human", "settings": "GI50 in HeLa / MRC in AR-0493", "description": "as §2, §3, §1"}, "E. coli AR-0493 [3]": {"tested_on": "E. coli AR-0493", "assay": "Checkerboard broth microdilution assay with colistin", "format": "cell-based", "description": "FIG. 2. […] AR-0493. Data represent the mean OD (600 nm) in two biological replicates.\nTo further confirm the synergistic effect of compound 3 and colistin, the checkerboard broth microdilution assay was performed (FIG. 2).\nas §1"}, "A. baumannii AR-0310": {"tested_on": "A. baumannii AR-0310", "assay": "Colistin MIC in the absence or presence of RMA compound", "format": "cell-based", "source_text": "(§4) To investigate the scope of the colistin-potentiation effect of compound 3, the present inventors screened a panel of MDR Gram-negative bacteria obtained from the CDC and FDA Antibiotic Resistance Bank. These include a variety of Enterobacteriaceae spp., such as E. coli AR-0346 and AR-0538, K. pneumoniae AR-0497, Salmonella Enteritidis AR-0496, and Salmonella Typhimurium AR-0635. These strains all express the mcr genes (e.g., mcr-1, mcr-2, and mcr-4) and are resistant to colistin with its MICs of 8-16 μg/mL (Table 2). […] The only exception is Salmonella Typhimurium AR-0635, which expresses mcr-4 gene. […]. […]. Furthermore, the present inventors also tested the activity of colistin in the presence or absence of 1 μg/mL compound 3 in a wild-type E. coli K-12. […] The MICs of compound 3 in all these strains were >64 μg/mL, the highest concentration tested.\nas §3, §1"}, "E. coli AR-0493 [4]": {"tested_on": "E. coli AR-0493", "assay": "Colistin MIC in the absence or presence of RMA compound", "format": "cell-based", "settings": "E. coli AR-0493", "source_text": "as §4, §3, §1"}, "E. coli AR-0538": {"tested_on": "E. coli AR-0538", "assay": "Colistin MIC in the absence or presence of RMA compound", "format": "cell-based", "settings": "E. coli AR-0538", "source_text": "as §4, §3, §1"}, "K. pneumoniae AR-0497": {"tested_on": "K. pneumoniae AR-0497", "assay": "Colistin MIC in the absence or presence of RMA compound", "format": "cell-based", "settings": "K. pneumoniae AR-0497", "source_text": "as §4, §3, §1"}, "[5]": {"tested_on": "Salmonella Typhimurium AR-0635", "assay": "Colistin MIC in the absence or presence of RMA compound", "format": "cell-based", "settings": "Salmonella Typhimurium AR-0635", "source_text": "as §4, §3, §1"}, "P. aeruginosa AR-0768": {"tested_on": "P. aeruginosa AR-0768", "assay": "Colistin MIC in the absence or presence of RMA compound", "format": "cell-based", "source_text": "as §4"}, "A. baumannii AR-0300": {"tested_on": "A. baumannii AR-0300", "assay": "Colistin MIC in the absence or presence of RMA compound", "format": "cell-based", "source_text": "as §4, §1"}, "E. coli AR-0346": {"tested_on": "E. coli AR-0346", "assay": "Colistin MIC in the absence or presence of RMA compound", "format": "cell-based", "settings": "E. coli AR-0346", "source_text": "as §4, §1"}, "E. coli K-12": {"tested_on": "E. coli K-12", "assay": "Colistin MIC in the absence or presence of RMA compound", "format": "cell-based", "settings": "in the presence of 1 μg/mL of compound 3; E. coli K-12", "source_text": "as §4, §1"}, "[6]": {"tested_on": "Salmonella Enteritidis AR-0496", "assay": "Colistin MIC in the absence or presence of RMA compound", "format": "cell-based", "settings": "Salmonella Enteritidis AR-0496", "source_text": "as §4, §1"}, "[7]": {"tested_on": "MDR Gram-negative bacteria", "assay": "MICs across a panel of MDR Gram-negative bacteria (summary statements)", "format": "cell-based", "source_text": "as §4, §3, §1"}, "[8]": {"settings": "in the presence of 1 μg/mL of compound 3"}, "[9]": {"settings": "1 μg/mL compound 3, almost all mcr-expressing Enterobacteriaceae strains of Table 2"}}, "note": "Several values for one entry are separate records, joined by “and”; a condition that tells them apart may be missing. Equal entries are not always repeated."}
{"smiles": "Cc1cccc(Nc2nc3nonc3nc2Nc2cccc(C)c2)c1", "note": "[Compound 3]", "values": [{"measurement": "MIC", "setting": "E. coli AR-0493 [1]", "value": "> 64", "unit": "µg/mL"}, {"measurement": "MRC", "setting": "E. coli AR-0493 [2]", "value": 0.5, "unit": "µg/mL"}, {"measurement": "GI50 at 24 h", "setting": "in vitro", "value": 15, "unit": "µg/mL"}, {"measurement": "SI (Selective Index), ratio of GI50 and MRC", "setting": "HeLa cells", "value": 30}, {"measurement": "fractional inhibitory concentration index (FICI)", "setting": "E. coli AR-0493 [3]; compound and colistin, E. coli AR-0493", "value": "< 0.06"}, {"measurement": "potentiation of colistin in checkerboard assay", "setting": "E. coli AR-0493 [3]; mean OD (600 nm), FIG. 2", "value": "dose-dependent potentiation of colistin"}, {"measurement": "Folds of potentiation", "setting": "A. baumannii AR-0310; 1 μg/mL of compound 3", "value": 32, "unit": "folds"}, {"measurement": "Colistin MIC (+3)", "setting": "A. baumannii AR-0310; [8]", "value": 0.5, "unit": "µg/mL"}, {"measurement": "Folds of potentiation", "setting": "E. coli AR-0493 [4]; 1 μg/mL of compound 3", "value": 16, "unit": "folds"}, {"measurement": "Colistin MIC (+3)", "setting": "E. coli AR-0493 [4]; [8]", "value": 1, "unit": "µg/mL"}, {"measurement": "Folds of potentiation", "setting": "E. coli AR-0538; 1 μg/mL of compound 3", "value": 16, "unit": "folds"}, {"measurement": "Colistin MIC (+3)", "setting": "E. coli AR-0538; [8]", "value": 0.5, "unit": "µg/mL"}, {"measurement": "Folds of potentiation", "setting": "K. pneumoniae AR-0497; 1 μg/mL of compound 3", "value": 16, "unit": "folds"}, {"measurement": "Colistin MIC (+3)", "setting": "K. pneumoniae AR-0497; [8]", "value": 0.5, "unit": "µg/mL"}, {"measurement": "Folds of potentiation", "setting": "[5]; 2 μg/mL of compound 3", "value": 16, "unit": "folds"}, {"measurement": "Colistin MIC (+3)", "setting": "[5]; [8]", "value": 4, "unit": "µg/mL"}, {"measurement": "Colistin MIC (+3)", "setting": "[5]; in the presence of 2 μg/mL of compound 3", "value": "1 μg/mL and 1^c μg/mL"}, {"measurement": "Folds of potentiation", "setting": "P. aeruginosa AR-0768; 1 μg/mL of compound 3", "value": 4, "unit": "folds"}, {"measurement": "Colistin MIC (+3)", "setting": "P. aeruginosa AR-0768; [8]", "value": 4, "unit": "µg/mL"}, {"measurement": "Folds of potentiation", "setting": "A. baumannii AR-0300; 1 μg/mL of compound 3", "value": 32, "unit": "folds"}, {"measurement": "Colistin MIC (+3)", "setting": "A. baumannii AR-0300; [8]", "value": 0.25, "unit": "µg/mL"}, {"measurement": "Folds of potentiation", "setting": "E. coli AR-0346; 1 μg/mL of compound 3", "value": 16, "unit": "folds"}, {"measurement": "Colistin MIC (+3)", "setting": "E. coli AR-0346; [8]", "value": 0.5, "unit": "µg/mL"}, {"measurement": "Colistin MIC (+3)", "setting": "E. coli K-12", "value": 0.25, "unit": "µg/mL"}, {"measurement": "Folds of potentiation", "setting": "[6]; 1 μg/mL of compound 3", "value": 16, "unit": "folds"}, {"measurement": "Colistin MIC (+3)", "setting": "[6]; [8]", "value": 1, "unit": "µg/mL"}, {"measurement": "Colistin MIC (+3)", "setting": "[7]; [9]", "value": "0.5 to 1", "unit": "µg/mL"}, {"measurement": "folds of potentiation for colistin", "setting": "[7]; [9]", "value": 16, "unit": "folds"}, {"measurement": "MIC", "setting": "[7]; compound alone, all strains of Table 2, highest concentration tested", "value": "> 64", "unit": "µg/mL"}]}
